Data from patent publication US20130078287A1 (Horizon Pharma USA, Inc., priority 2010, published 2013).
Marks after values point to notes of the source that are not given here.

Test system: subjects who completed REDUCE-1 or REDUCE-2 without ulcer
Assay: Follow-on safety study (28 weeks) after REDUCE-1 or REDUCE-2: adverse events
[1] = TEAE, follow-on study, Preferred Term
[2] = TEAE, follow-on study, System Organ Class

Q: With `CC(C)Cc1ccc(C(C)C(=O)O)cc1` (centres unmarked) [Ibuprofen, 2-(p-isobutylphenyl)propionic acid] as the compound, how does the “AEs Leading to Discontinuation, Incidence (%)” value (Follow-on Study) read?
A: 2.1%

Q: And the “AEs by Relatedness: Possibly Related, Incidence (%)” value (Follow-on Study)?
A: 8.5%

Q: And the “AEs by Relatedness: Probably Not Related, Incidence (%)” value (Follow-on Study)?
A: 25.5%

Q: And the “AEs by Severity: Life Threatening, Incidence (%)” value (Follow-on Study)?
A: 0.0%

Q: What about the “AEs by Severity: Mild, Incidence (%)” value (Follow-on Study) of the same compound?
A: 10.6%

Q: And the “AEs by Severity: Moderate, Incidence (%)” value (Follow-on Study)?
A: 19.1%

Q: And the “AEs by Severity: Severe, Incidence (%)” value (Follow-on Study)?
A: 4.3%

Q: And the “Abdominal Pain Upper, Incidence (%)” value (Follow-on Study)?
A: 0.0 (0) %

Q: And the “Abdominal Tenderness, Incidence %” value (Follow-on Study)?
A: 2.1 (0) %

Q: What about the “Any GI Event, Incidence (%)” value (Follow-on Study) of the same compound?
A: 4.3 (2)* %

Q: What about the “Constipation, Incidence (%)” value (Follow-on Study) of the same compound?
A: 0.0 (0) %

Q: What about the “Deaths, Incidence %” value (Follow-on Study) of the same compound?
A: 0.0(0) %

Q: What about the “Diarrhea, Incidence (%)” value (Follow-on Study) of the same compound?
A: 2.1 (1) %

Q: And the “Dyspepsia, Incidence (%)” value (Follow-on Study)?
A: 0.0 (0) %

Q: What about the “General Disorders/Administrative Site Conditions, Incidence (%)” value (Follow-on Study) of the same compound?
A: 4.3(2) %

Q: And the “Hepatobiliary Disorders, Incidence (%)” value (Follow-on Study)?
A: 2.1(1) %

Q: What about the “Hypertension, Incidence (%)” value (Follow-on Study) of the same compound?
A: 0.0(0) %

Q: And the “Infections/Infestations, Incidence (%)” value (Follow-on Study)?
A: 14.9(7) %

Q: What about the “Injury, Poisoning, Procedural Complications, Incidence (%)” value (Follow-on Study) of the same compound?
A: 4.3(2) %

Q: What about the “Metabolism and Nutrition Disorders, Incidence %” value (Follow-on Study) of the same compound?
A: 8.5(4)* %

Q: And the “Musculoskeletal/connective Tissue Disorders, Incidence (%)” value (Follow-on Study)?
A: 2.1(1) %

Q: And the “Nausea, Incidence (%)” value (Follow-on Study)?
A: 0.0 (0) %

Q: And the “Nervous System Disorders, Incidence (%)” value (Follow-on Study)?
A: 4.3(2) %

Q: What about the “Respiratory, Thoracic and Mediastinal Disorders, Incidence (%)” value (Follow-on Study) of the same compound?
A: 2.1(1) %

Q: And the “SAEs leading to discontinuation, Incidence %” value (Follow-on Study)?
A: 0.0(0) %

Q: And the “Subjects with at least one AE, Incidence (%)” value (Follow-on Study)?
A: 34.0%

Q: And the “Total SAEs, Incidence %” value (Follow-on Study)?
A: 4.3(2) %

Q: And the “Withdrawals due to GI, Incidence (%)” value (Follow-on Study)?
A: 0.0 (0) %

Q: What about the Abdominal discomfort [1] of the same compound?
A: 2.1 (1) % (n)

Q: And the Abdominal distension [1]?
A: 0.0 (0) % (n)

Q: And the Abdominal pain [1]?
A: 2.1 (1) % (n)

Q: What about the Abdominal pain upper [1] of the same compound?
A: 2.1 (1) % (n)

Q: And the Abdominal tenderness [1]?
A: 2.1 (1) % (n)

Q: What about the Accidental overdose [1] of the same compound?
A: 2.1 (1) % (n)

Q: And the Anaemia [1]?
A: 2.1 (1) % (n)

Q: What about the Animal bite [1] of the same compound?
A: 0.0 (0) % (n)

Q: What about the Anxiety [1] of the same compound?
A: 2.1 (1) % (n)

Q: And the Arthralgia [1]?
A: 4.3 (2) % (n)

Q: What about the Asthma [1] of the same compound?
A: 0.0 (0) % (n)

Q: And the Back pain [1]?
A: 0.0 (0) % (n)

Q: And the Blood creatinine increased [1]?
A: 0.0 (0) % (n)

Q: What about the Blood pressure increased [1] of the same compound?
A: 0.0 (0) % (n)

Q: And the Bronchitis [1]?
A: 2.1 (1) % (n)

Q: What about the Bronchitis acute [1] of the same compound?
A: 2.1 (1) % (n)

Q: And the Carpal tunnel syndrome [1]?
A: 0.0 (0) % (n)

Q: And the Cataract [1]?
A: 2.1 (1) % (n)

Q: And the Cholelithiasis [1]?
A: 2.1 (1) % (n)

Q: And the Conjunctivitis [1]?
A: 2.1 (1) % (n)

Q: And the Constipation [1]?
A: 4.3 (2) % (n)

Q: And the Contusion [1]?
A: 2.1 (1) % (n)

Q: What about the Cough [1] of the same compound?
A: 0.0 (0) % (n)

Q: And the Dermatitis [1]?
A: 2.1 (1) % (n)

Q: And the Dermatitis contact [1]?
A: 2.1 (1) % (n)

Q: What about the Diabetes mellitus [1] of the same compound?
A: 2.1 (1) % (n)

Q: What about the Diabetes mellitus non-insulin-dependent [1] of the same compound?
A: 2.1 (1) % (n)

Q: And the Diarrhoea [1]?
A: 8.5 (4) % (n)

Q: And the Dizziness [1]?
A: 2.1 (1) % (n)

Q: And the Dyspepsia [1]?
A: 2.1 (1) % (n)

Q: And the Ear infection [1]?
A: 2.1 (1) % (n)

Q: What about the Eczema [1] of the same compound?
A: 2.1 (1) % (n)

Q: What about the Fall [1] of the same compound?
A: 2.1 (1) % (n)

Q: What about the Flatulence [1] of the same compound?
A: 2.1 (1) % (n)

Q: And the Folliculitis [1]?
A: 2.1 (1) % (n)

Q: What about the Foot fracture [1] of the same compound?
A: 2.1 (1) % (n)

Q: What about the Gait disturbance [1] of the same compound?
A: 2.1 (1) % (n)

Q: And the Gastritis [1]?
A: 2.1 (1) % (n)

Q: What about the Gastroenteritis [1] of the same compound?
A: 0.0 (0) % (n)

Q: And the Gastroenteritis viral [1]?
A: 4.3 (2) % (n)

Q: What about the Gastrooesophageal reflux disease [1] of the same compound?
A: 2.1 (1) % (n)

Q: And the Headache [1]?
A: 0.0 (0) % (n)

Q: And the Hypercholesterolaemia [1]?
A: 2.1 (1) % (n)

Q: And the Hyperglycaemia [1]?
A: 2.1 (1) % (n)

Q: What about the Hyperlipidaemia [1] of the same compound?
A: 2.1 (1) % (n)

Q: What about the Hyperosmolar state [1] of the same compound?
A: 2.1 (1) % (n)

Q: And the Hypertension [1]?
A: 2.1 (1) % (n)

Q: What about the Influenza [1] of the same compound?
A: 2.1 (1) % (n)

Q: What about the Intestinal spasm [1] of the same compound?
A: 2.1 (1) % (n)

Q: And the Joint injury [1]?
A: 2.1 (1) % (n)

Q: And the Joint sprain [1]?
A: 2.1 (1) % (n)

Q: And the Joint swelling [1]?
A: 2.1 (1) % (n)

Q: And the Knee deformity [1]?
A: 2.1 (1) % (n)

Q: What about the Laryngitis [1] of the same compound?
A: 4.3 (2) % (n)

Q: And the Limb crushing injury [1]?
A: 2.1 (1) % (n)

Q: What about the “Lower respiratory tract infection” value [1] of the same compound?
A: 4.3 (2) % (n)

Q: And the Migraine [1]?
A: 2.1 (1) % (n)

Q: And the Mood swings [1]?
A: 2.1 (1) % (n)

Q: What about the Muscle spasms [1] of the same compound?
A: 0.0 (0) % (n)

Q: And the Musculoskeletal pain [1]?
A: 4.3 (2) % (n)

Q: And the Nasopharyngitis [1]?
A: 2.1 (1) % (n)

Q: And the Nausea [1]?
A: 4.3 (2) % (n)

Q: And the Neck injury [1]?
A: 2.1 (1) % (n)

Q: What about the Neck pain [1] of the same compound?
A: 2.1 (1) % (n)

Q: What about the Nerve compression [1] of the same compound?
A: 2.1 (1) % (n)

Q: What about the Non-cardiac chest pain [1] of the same compound?
A: 2.1 (1) % (n)

Q: What about the Oedema peripheral [1] of the same compound?
A: 6.4 (3) % (n)

Q: And the Oesophageal stenosis [1]?
A: 2.1 (1) % (n)

Q: And the Otitis media [1]?
A: 0.0 (0) % (n)

Q: What about the Pharyngolaryngeal pain [1] of the same compound?
A: 2.1 (1) % (n)

Q: What about the Plantar fasciitis [1] of the same compound?
A: 2.1 (1) % (n)

Q: What about the Pneumonia [1] of the same compound?
A: 2.1 (1) % (n)

Q: And the Rib fracture [1]?
A: 4.3 (2) % (n)

Q: And the Road traffic accident [1]?
A: 2.1 (1) % (n)

Q: What about the Sinusitis [1] of the same compound?
A: 2.1 (1) % (n)

Q: And the Skin laceration [1]?
A: 2.1 (1) % (n)

Q: What about the Stomach discomfort [1] of the same compound?
A: 0.0 (0) % (n)

Q: What about the Swelling face [1] of the same compound?
A: 0.0 (0) % (n)

Q: What about the Tendon injury [1] of the same compound?
A: 0.0 (0) % (n)

Q: And the Tendonitis [1]?
A: 2.1 (1) % (n)

Q: And the Throat irritation [1]?
A: 2.1 (1) % (n)

Q: And the Tinnitus [1]?
A: 2.1 (1) % (n)

Q: And the Tooth abscess [1]?
A: 0.0 (0) % (n)

Q: What about the Tooth infection [1] of the same compound?
A: 2.1 (1) % (n)

Q: What about the Toothache [1] of the same compound?
A: 2.1 (1) % (n)

Q: What about the Traumatic brain injury [1] of the same compound?
A: 2.1 (1) % (n)

Q: What about the “Upper respiratory tract infection” value [1] of the same compound?
A: 6.4 (3) % (n)

Q: What about the Urinary tract infection [1] of the same compound?
A: 0.0 (0) % (n)

Q: What about the Urticaria [1] of the same compound?
A: 2.1 (1) % (n)

Q: What about the “Viral upper respiratory tract infection” value [1] of the same compound?
A: 2.1 (1) % (n)

Q: What about the Vomiting [1] of the same compound?
A: 4.3 (2) % (n)

Q: And the Wheezing [1]?
A: 0.0 (0) % (n)

Q: And the “Ear and labyrinth disorders” value [2]?
A: 2.1 (1) % (n)

Q: And the Eye disorders [2]?
A: 4.3 (2) % (n)

Q: What about the Gastrointestinal disorders [2] of the same compound?
A: 23.4 (11) % (n)

Q: And the “General disorders and administration site conditions” value [2]?
A: 6.4 (3) % (n)

Q: What about the Hepatobiliary disorders [2] of the same compound?
A: 2.1 (1) % (n)

Q: And the Immune system disorders [2]?
A: 0.0 (0) % (n)

Q: What about the Infections and infestations [2] of the same compound?
A: 36.2 (17) % (n)

Q: And the “Injury, poisoning and procedural complications” value [2]?
A: 17.0 (8) % (n)

Q: And the Investigations [2]?
A: 0.0 (0) % (n)

Q: And the “Metabolism and nutrition disorders” value [2]?
A: 8.5 (4) % (n)

Q: What about the “Neoplasms benign, malignant and unspecified (incl. cysts and polyps)” value [2] of the same compound?
A: 0.0 (0) % (n)

Q: What about the Nervous system disorders [2] of the same compound?
A: 6.4 (3) % (n)

Q: What about the Psychiatric disorders [2] of the same compound?
A: 4.3 (2) % (n)

Q: What about the “Renal and urinary disorders” value [2] of the same compound?
A: 0.0 (0) % (n)

Q: And the “Respiratory, thoracic and mediastinal disorders” value [2]?
A: 4.3 (2) % (n)

Q: And the Vascular disorders [2]?
A: 2.1 (1) % (n)

Q: What about the “Total Subjects With at Least One TEAE” value (follow-on study, safety follow-on population, HZT-501 N = 132, Ibuprofen N = 47) of the same compound?
A: 68.1 (32) % (n)
